Experimental data from US20040092584A1, “Substance or composition for the treatment of cancer” (priority 2000, published 2004).

Key:
HeLa = experiment: Growth of cancer cell lines, MTT reactivity (HeLa); assay type: cell-based, human; details: mean drug concentration causing 50% cell killing, 3-4 experiments, 72 to 96 h, read-out: IC 50 (μM) HeLa
Procedure: (§1) The sensitivities of the two cancer cell lines HeLa, which is a sensitive human cervix epitheloid carcinoma cell line, and CoLo 320DM, which is an intrinsically multidrug resistant human colon adeno-carcinoma cell line, to 13 of the complexes of the invention was tested.

CoLo 320DM = experiment: Growth of cancer cell lines, MTT reactivity (CoLo 320DM); assay type: cell-based, human; details: mean drug concentration causing 50% cell killing, 3-4 experiments, 72 to 96 h, multidrug resistant line, read-out: IC 50 (μM) CoLo 320DM
Procedure: as §1

COR L23 = experiment: Growth of cancer cell lines, MTT reactivity (COR L23); assay type: cell-based, human; details: mean drug concentration causing 50% cell killing, 3-4 experiments, 72 to 96 h, read-out: IC 50 (μM) COR L23
Procedure: (§2) In these experiments cancer cell lines were cultured in standard tissue culture medium supplemented with 10% fetal calf serum (FCS) at 37° C. In an atmosphere of 5% CO2 in 96 well round bottom microtitre plates. The cultures were treated with either ferrocene-containing β-diketones or their rhodium complexes at varying concentrations for 72 to 96 h, and the extent of cell growth was assayed by MTT [3-(4,5-dimethylthiazol-2yl)-2,5-diphenyl tetrazolium bromide] reactivity, which detects only viable cells.

COR L23/CPR = experiment: Growth of cancer cell lines, MTT reactivity (COR L23/CPR); assay type: cell-based, human; details: mean drug concentration causing 50% cell killing, 3-4 experiments, 72 to 96 h, platinum resistant variant, read-out: IC 50 (μM) COR L23/CPR
Procedure: as §2

[1] = test system: PHA-stimulated human lymphocytes; experiment: Proliferation of PHA-stimulated human lymphocytes, MTT reactivity; details: for IC50: read-out: IC 50 (μM) PHA-stimulated lymphocytes, mean drug concentration causing 50% cell killing, PHA 2.5 μg/ml, 72 h, MTT; for Tumor specificity: activity against tumor cells versus stimulated normal human lymphocytes: tumor cells versus PHA-stimulated lymphocytes (Table 1)
Procedure: In these experiments suspensions of purified human mononuclear leukocytes were cultured in RPMI medium supplemented with 10% fetal calf serum (FCS) at 37° C. in an atmosphere of 5% CO2 in 96 well round bottom microtitre plates. To some of the wells a mitogen (phytohaemagglutinin, PHA) was added at a concentration of 2.5 μg/ml. The cultures were treated with either ferrocene-containing β-diketones or their rhodium complexes at varying concentrations for 72 h, and the extent of cell growth was assayed by MTT reactivity.

[2] = test system: Chinese hamster ovary (CHO) cells; experiment: Survival of CHO cells after irradiation under hypoxic conditions; assay type: cell-based; details: for Mean Inactivation Dose (Gy) / Dose Modifying Factor (DMF): hypoxic conditions; for Mean Inactivation Dose (Gy): 8 MV photon beam; for Dose Modifying Factor (DMF): ratio of mean inactivation doses; for Sensitivity of CHO cells to irradiation under hypoxic conditions (in words): submicromolar concentrations
Procedure: CHO cells were treated in glass test tubes with non-toxic concentrations (0.39 μM and 0.78 μM) of the two rhodium-ferrocene complexes [Rh(fctca)(cod)] and [Rh(fctfa)(cod)] and irradiated with an 8 MV photon beam in a modular incubator chamber with a 2 cm tissue equivalent wax buildup (8MVmax) under aerobic and hypoxic conditions.
Neither of the two rhodium complexes tested increased the sensitivity of CHO cells to irradiation in an aerobic environment (results not shown). However, both complexes increased the sensitivity of CHO cells under hypoxic conditions (FIGS. 4 and 5). A dose-modifying factor of 2.9 was obtained under hypoxic conditions for 0.78 μM [Rh(fctfa)(cod)] (Table 2) and 1.9 for 0.39 μM [Rh(fctca)(cod)] (Table 3). The dose-modifying factors were calculated as the ratio of mean inactivation doses [calculated from the respective inactivation parameters obtained from the linear quadratic fit of the cell growth fraction (S)]. Published dose modifying factors (DMFs) measured for cisplatin range from 1.2-2 (Chibber R, Stratford I J, O'Neill P, Sheldon P W, Ahmed I, Lee B. 1985. The interaction between radiation and complexes of cis-Pt (II) and Rh (II): Studied at the molecular level. Int J Radiat Biol 48:513-524; Van De Vaart,. P J M, Klaren, H M, Holland I, Begg A C. 1997. Oral platinum analogue JM216, a radiosensitizer in oxic murine cells. Int J Radiat Biol 72(6):675-683).

[3] = Anticancer activity of synthesis intermediates; details: intermediates of the published synthesis route
[4] = published values; cited from earlier work

Row | Compound | IC50 (HeLa) | IC50 (CoLo 320DM) | IC50 (COR L23) | IC50 (COR L23/CPR) | IC50 [1] | further results
1 | (η^4-1,5-cyclooctadiene)(1,3-diferrocenyl-1,3-propanedionato-κ^2O,O′)rhodium(1) [Rh(dfcm)(cod)] | 18.4 µM | 70.8 µM | 19.9 µM | 30.8 µM | 42.2 µM | –
2 | diferrocenoylmethane [Hdfcm] | 54.4 µM | 64.3 µM | 75.4 µM | 74.4 µM | > 100 µM | –
3 | C1=CCCC=CCC1.O=C(C=C([O-])C(Cl)(Cl)Cl)[c-]1cccc1.[Fe+2].[Rh+].c1cc[cH-]c1 [Rh(fctca)(cod), (η^4-1,5-cyclooctadiene)(1-ferrocenyl-4,4,4-trichloro-1,3-butanedionato-κ^2O,O′)rhodium(1)] | 7.9 µM | 3 µM | 1.3 µM | 2 µM | 4.7 µM | Mean Inactivation Dose (Gy) ([2]; 0.39 μM complex): 3.73 Gy; Dose Modifying Factor (DMF) ([2]; 0.39 μM complex): 1.9; Mean Inactivation Dose (Gy) ([2]; 0.78 μM complex): 4.46 Gy; Dose Modifying Factor (DMF) ([2]; 0.78 μM complex): 1.6; Sensitivity of CHO cells to irradiation under hypoxic conditions (in words) [2]: compare favorably with cisplatin
4 | acetyl ferrocene | – | – | – | – | – | Significant anticancer activity [3]: none
5 | C1=C\CC/C=C\CC/1.C1=C\CC/C=C\CC/1.[Cl-].[Cl-].[Rh].[Rh] [[RhCl(cod)]2] | – | – | – | – | – | Significant anticancer activity [3]: none
6 | C1=CCCC=CCC1.O=C(C=C([O-])[c-]1cccc1)c1ccccc1.[Rh+].[Ru+2].c1cc[cH-]c1 [[Rh(brcm)(cod)], (η^4-1,5-cyclooctadiene)(1-ruthenocenyl-3-phenyl-1,3-propanedionato-κ^2O,O′)rhodium(1)] | 16.2 µM | 20.4 µM | 15.8 µM | 14.1 µM | – | –
7 | C1=CCCC=CCC1.O=C(C=C([O-])C(F)(F)F)[c-]1cccc1.[Rh+].[Ru+2].c1cc[cH-]c1 [[Rh(rctfa)(cod)], (η^4-1,5-cyclooctadiene)(1-ruthenocenyl-4,4,4-trifluooro-1,3-butanedionato-κ^2O,O′)rhodium(1)] | 54.7 µM | 67.4 µM | 49.2 µM | 48 µM | – | –
8 | ferrocenoyltrifluoroacetone [Hfctfa] | 6.8 µM | 7.3 µM | 4.5 µM | 6.3 µM | 83.1 µM | Radiosensitisation, initial tests (in words) [2]: promising; Tumor specificity: activity against tumor cells versus stimulated normal human lymphocytes [1]: eight
9 | O=CCC(=O)[c-]1cccc1.[Fe+2].c1cc[cH-]c1 [Hfch, ferrocenoylacetaldehyde] | 73.4 µM | 80.8 µM | – | – | – | –
10 | C1=CCCC=CCC1.O=C(C=C([O-])c1ccccc1)[c-]1cccc1.[Fe+2].[Rh+].c1cc[cH-]c1 [Rh(bfcm)(cod), (η^4-1,5-cyclooctadiene)(1-ferrocenyl-3-phenyl-1,3-propanedionato-κ^2O,O′)rhodium(1)] | 28.3 µM | 87.1 µM | 22.5 µM | 22 µM | 97.2 µM | –
11 | ferrocenoylacetone [Hfca] | 66.6 µM | 57.1 µM | – | – | – | –
12 | C1=CCCC=CCC1.O=C(C=C([O-])[c-]1cccc1)[c-]1cccc1.[Fe+2].[Rh+].[Ru+2].c1cc[cH-]c1.c1cc[cH-]c1 [[Rh(fcrcm)(cod)], (η^4-1,5-cyclooctadiene)(1-ferrocenyl-3-ruthenocenyl-1,3-propanedionato-κ^2O,O′)rhodium(1)] | 17.1 µM | 29.2 µM | 10.1 µM | 20.1 µM | – | –
13 | C1=CCCC=CCC1.O=C(C=C([O-])C(F)(F)F)[c-]1cccc1.[Fe+2].[Rh+].c1cc[cH-]c1 [Rh(fctfa)(cod), (η^4-1,5-cyclooctadiene)(1-ferrocenyl-4,4,4-trifluooro-1,3-butanedionato-κ^2O,O′)rhodium(1)] | 12.5 µM | 13.4 µM | 8.5 µM | 5.8 µM | 41.6 µM | Mean Inactivation Dose (Gy) ([2]; 0.39 μM complex): 2.41 Gy; Dose Modifying Factor (DMF) ([2]; 0.39 μM complex): 2.6; Mean Inactivation Dose (Gy) ([2]; 0.78 μM complex): 2.19 Gy; Dose Modifying Factor (DMF) ([2]; 0.78 μM complex): 2.9; Sensitivity of CHO cells to irradiation under hypoxic conditions (in words) [2]: compare favorably with cisplatin; Tumor specificity: activity against tumor cells versus stimulated normal human lymphocytes [1]: 4-5 times
14 | (η^4-1,5-cyclooctadiene)(1-ferrocenyl-1,3-propanedionato-κ^2O,O′)rhodium(1) [Rh(FcH)(cod)] | 62.4 µM | 35.4 µM | – | – | – | –
15 | C1=CCCC=CCC1.O=C(C=C[O-])[c-]1cccc1.[Rh+].[Ru+2].c1cc[cH-]c1 [[Rh(RcH)(cod)], (η^4-1,5-cyclooctadiene)(1-ruthenocenyl-1,3-propanedionato-κ^2O,O′)rhodium(1)] | 52 µM | 68.8 µM | 34 µM | 39.6 µM | – | –
16 | benzoylferrocenoylmethane [Hbfcm] | 54.2 µM | 85.1 µM | 66.8 µM | 80.4 µM | > 100 µM | –
17 | C1=C\CC/C=C\CC/1.CC(=O)/C=C(/C)O.[Rh] [Rh(acac)(cod)] | 97.3 µM | > 100 µM | – | – | – | –
18 | N.N.[Cl][Pt][Cl] [cisplatin] | – | – | – | – | – | Published dose modifying factors (DMFs) [4]: 1.2-2
19 | [Cl][Rh]([Cl])[Cl] [RhCl3] | – | – | – | – | – | Significant anticancer activity [3]: none
20 | O=C(CC(=O)C(Cl)(Cl)Cl)[c-]1cccc1.[Fe+2].c1cc[cH-]c1 [Hfctca, ferrocenoyltrichloroacetone] | 37.7 µM | 28.4 µM | 12.5 µM | 20.1 µM | 67.5 µM | Radiosensitisation, initial tests (in words) [2]: promising
21 | C1=CCCC=CCC1.CC([O-])=CC(=O)[c-]1cccc1.[Fe+2].[Rh+].c1cc[cH-]c1 [Rh(fca)(cod), (η^4-1,5-cyclooctadiene)(1-ferrocenyl-1,3-butanedionato-κ^2O,O′)rhodium(1)] | 64.4 µM | 56.6 µM | – | – | – | –
22 | C1=CCCC=CCC1.CC(=O)C=C([O-])[c-]1cccc1.[Rh+].[Ru+2].c1cc[cH-]c1 [[Rh(rca)(cod)], (η^4-1,5-cyclooctadiene)(1-ruthenocenyl-1,3-butanedionato-κ^2O,O′)rhodium(1)] | 4.86 µM | 3 µM | 0.18 µM | 2.74 µM | – | –
